Tests used:
MDA-MB-231 TNBC cells = experiment: Cell survival assay (MTT or trypan blue); conditions: Homo sapiens; MDA-MB-231 cells, 72 hours; for SMI #9-GNP based on the concentration of SMI #9
Method: (§1) MDA-MB-231, SUM-1315, MDA-MB-468, and HCC1937 TNBC cells (ATCC) were maintained in Dulbecco's Modified Eagle's Medium (DMEM)/F-12 supplemented with 5% fetal bovine serum. Nontransformed MCF10A human breast cells were maintained in DMEM/F12 supplemented with 5% horse serum, 20 ng/ml epidermal growth factor, 10 μg/ml insulin, 0.5 μg/ml hydrocortisone and 0.10 μg/ml cholera toxin. Sensitivity to SMI #9-GNP was assessed by trypan blue staining or MTT colorimetric assay. Briefly, cells were seeded in 96-well plates at a density of 5-7×10^3 cells per well and allowed to attach overnight. Cells were treated with free SMI #9, SMI #9-GNP, or blank-GNP at various concentrations in triplicates for 72 hours. In some cases, treatments included various doses of cisplatin singly or in combination with SMI #9-GNP. On the final day, medium was replaced with drug free medium, incubated with MTT at 37° C. for 2-3 hours. The medium and MTT were removed, and the MTT-formazan crystals dissolved in 200 μl of 0.04 N HCl/isopropanol, and absorbance measured at 570 nm using the Synergy 2 multi-well plate reader. Alternately, cultures were trypsinized and cell viability determined by trypan blue exclusion using the Biorad TC10 automatic cell counter. At least two to three independent experiments were performed for each cell line.

SUM1315 TNBC cells = experiment: Cell survival assay (MTT or trypan blue); conditions: 72 hours, for SMI #9-GNP based on the concentration of SMI #9
Method: as §1

HCC1937 TNBC cells = experiment: Cell survival assay (MTT or trypan blue); format: cell-based; conditions: Homo sapiens, 72 hours
Method: as §1

MDA-MB-468 TNBC cells = experiment: Cell survival assay (MTT or trypan blue); format: cell-based; conditions: Homo sapiens; MDA-MB-468 cells, 72 hours
Method: as §1

[1] = test system: nontransformed MCF10A human breast cells; experiment: Cell survival assay (MTT or trypan blue); format: cell-based; conditions: 72 hours
Method: as §1

HCC1937 cells = experiment: Mitochondrial membrane potential, JC-1 assay; format: cell-based; conditions: overnight, 1 μM
Method: (§2) The impact of free SMI #9 or SMI #9-GNP on mitochondrial membrane potential (Δψm) on SUM1315 and HCC1937 TNBC cells was assessed using JC-1 (Mitocapture, Biovision, Mountainview, Calif.), a potentiometric green fluorescent dye that shifts to red fluorescence within mitochondria with a normal negative […]. Briefly, cells were incubated with the MitoCapture reagent for 15 min at 37° C. and imaged by fluorescence microscopy as described in Shekhar M P et al., Cancer Biol Ther 2008; 7:1774-82.
(§3) The percent of cells showing punctate red fluorescence or diffuse green fluorescence were scored by counting three-five fields of 50-100 cells in each field. Each experiment was repeated at least three times and results expressed as mean±S.E. Statistical significance of differences was determined by Student's t test.

SUM1315 cells = experiment: Mitochondrial membrane potential, JC-1 assay; format: cell-based
Method: as §2, §3

PARP-1 in TNBC cells = experiment: Western blot of PARP-1 steady-state levels; format: cell-based; conditions: TNBC cell lines, 24 hours
Method: (§4) Breast cancer cells treated with vehicle, free SMI #9, blank- or SMI #9-GNP (1-5 μM) for 24-96 hours were lysed, and aliquots of lysates containing 25 μg of protein were subjected to SDS-PAGE and western blot analysis of PARP-1 (Cell Signaling), Rad6, LC3-I/II (Cell Signaling), and […] (Sigma). To determine LC3 subcellular localization, control or SMI #9-GNP treated cells were fixed with methanol:acetone (1:1, v/v) and stained with anti-LC3 antibody. Slides were incubated with FITC-conjugated secondary antibody, counterstained with DAPI and analyzed by fluorescence microscopy.

[2] = test system: LC3-I/LC3-II in MDA-MB-231 cells; experiment: Western blot of LC3-I/II; format: cell-based; conditions: 24 hours
Method: as §4

[3] = test system: LC3-I/LC3-II in SUM1315 cells; experiment: Western blot of LC3-I/II; format: cell-based; conditions: 24 h
Method: as §4

in vivo = experiment: in vivo; design: species or system mice; conditions: mouse, iv, 5 mg/kg
Method: To determine release of conjugated drugs and metabolic stability of GNP conjugates, mice were given a single i.v. injection of SMI #9-GNP at 5 mg/kg body wt. Blood samples were collected at 0, 5 min, 15 min, 30 min, 1 h, 2 h, 4 h, 8 h, and 24 h post-injection. Similarly, to assess the stability of SMI #9 as a free drug, a single i.v. injection of SMI #9 at 5 mg/kg was injected and blood samples collected. Concentrations of SMI #9 in plasma were determined by tandem LC-MS/MS and non-compartmental analysis with WinNonlin v5.2 (Pharsight).

[4] = test system: SUM1315 triple negative breast cancer cell derived tumors; experiment: Orthotopic tumor growth assay; format: in vivo, mice; conditions: SUM1315 xenografts, intraperitoneal injection at 5 mg/kg
Method: MDA-MB-468 or SUM1315 triple negative breast cancer cells (1×10^6 cells suspended in 0.1 ml Matrigel) were injected subcutaneously into the fatpads of fourth and fifth inguinal mammary glands of female nude mice. […] Control vehicle or SMI #9 free drug was administered intratumorally whereas blank-GNP and SMI #9-GNP were administered intraperitoneally. Treatments were given every fourth day. Tumor volumes and body weights were measured twice a week and mice were monitored for weight loss, gastrointestinal distress, activity, body posture, and food/water intake. Mice were sacrificed at 35-44 days postimplantation. Tumors were harvested and weighed.

[5] = test system: MDA-MB-468 or SUM1315 triple negative breast cancer cell derived tumors; experiment: Orthotopic tumor growth assay, tumor line not given; format: in vivo; conditions: female nude mice, 1.5 mg/kg intratumorally every fourth day
Method: MDA-MB-468 or SUM1315 triple negative breast cancer cells (1×10^6 cells suspended in 0.1 ml Matrigel) were injected subcutaneously into the fatpads of fourth and fifth inguinal mammary glands of female nude mice. Mice were randomized and treatments with SMI #9-GNP (0.285 mg/kg body wt), SMI #9 free drug (1.5 mg/kg body wt.), blank-GNP (volumes equivalent to SMI #9-GNP), or vehicle control were initiated upon detection of palpable lesions. Control vehicle or SMI #9 free drug was administered intratumorally whereas blank-GNP and SMI #9-GNP were administered intraperitoneally. Treatments were given every fourth day. Tumor volumes and body weights were measured twice a week and mice were monitored for weight loss, gastrointestinal distress, activity, body posture, and food/water intake. Mice were sacrificed at 35-44 days postimplantation. Tumors were harvested and weighed.

Question: What does the source list for `Nc1nc(COC(=O)c2ccc([N+](=O)[O-])cc2)nc(Nc2ccccc2)n1` [SMI #9]?
Answer: GI50 (MDA-MB-231 TNBC cells): 5 µM; GI50 (SUM1315 TNBC cells): 6 µM; GI50 (HCC1937 TNBC cells): 1.8 µM; GI50 (MDA-MB-468 TNBC cells): 3 µM; sensitivity (growth inhibition) [1]: unaffected; JC-1 punctate red fluorescence (HCC1937 cells): reduced the punctate red fluorescence staining; mitochondrial integrities (SUM1315 cells): similarly and dramatically compromised; JC-1 punctate red fluorescence (SUM1315 cells; overnight, 1 μM): reduced the punctate red fluorescence staining; PARP-1 processing / steady-state levels (PARP-1 in TNBC cells): stabilization/hyperactivation of PARP-1; LC3-I and LC3-II levels [2]: downregulated both LC3-I and LC3-II; changes in LC3-I processing [3]: not readily apparent; Cmax (in vivo): 409 nM; Tmax (in vivo): ~5 min; tumor growth [4]: no significant change in tumor growth; tumor growth [5]: tumor growth inhibition compared to controls
